Results published in PubChem BioAssay AID330 (DTP/NCI, 2004).
Where “and” joins values, the source holds several entries; their conditions need not be identical. Identical values can stand only once. Inconclusive results and toxic doses are left out. Square brackets hold non-standard residues; d marks the D form. Peptide text beside a SMILES is read from it. * marks the point of attachment. Cbz = O=C(OCc1ccccc1)*; Nva = CCC[CH](N)C(=O)O

Tested on: P388 leukemia ip, CD2F1 mice, survival T/C
Assay: NCI In Vivo Anticancer Drug Screen. Data for tumor model P388 Leukemia (intraperitoneal) in CD2F1 (CDF1) mice
Details: endpoint: median survival time, higher = longer survival
Outline: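 Mice carrying the transplanted tumor received test compound or vehicle. Survival was recorded in each group, and the value is the treated-group measurement divided by that of the vehicle-treated control group.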

[1] = dose: 50.0 mg/kg/injection, schedule: Q01DX009 (ip), vehicle: saline
[2] = dose: 100.0 mg/kg/injection, schedule: Q01DX009 (ip), vehicle: saline
[3] = dose: 100.0 mg/kg/injection, schedule: Q01DX009 (ip), vehicle: Klucel (hydroxypropylcellulose) (HPC)
[4] = dose: 200.0 mg/kg/injection, schedule: Q01DX009 (ip), vehicle: Klucel (hydroxypropylcellulose) (HPC)
[5] = dose: 50.0 mg/kg/injection, schedule: Q01DX005 (ip), vehicle: saline with Tween-80
[6] = dose: 100.0 mg/kg/injection, schedule: Q01DX005 (ip), vehicle: saline with Tween-80
[7] = dose: 200.0 mg/kg/injection, schedule: Q01DX005 (ip), vehicle: saline with Tween-80
[8] = dose: 50.0 mg/kg/injection, schedule: Q01DX009 (ip), vehicle: saline with Tween-80
[9] = dose: 100.0 mg/kg/injection, schedule: Q01DX009 (ip), vehicle: saline with Tween-80
[10] = dose: 200.0 mg/kg/injection, schedule: Q01DX009 (ip), vehicle: saline with Tween-80
[11] = dose: 50.0 mg/kg/injection, schedule: Q01DX009 (ip), vehicle: Klucel (hydroxypropylcellulose) (HPC)
[12] = dose: 50.0 mg/kg/injection, schedule: Q01DX005 (ip), vehicle: Klucel (hydroxypropylcellulose) (HPC)
[13] = dose: 100.0 mg/kg/injection, schedule: Q01DX005 (ip), vehicle: Klucel (hydroxypropylcellulose) (HPC)
[14] = dose: 60.0 mg/kg/injection, schedule: Q01DX005 (ip), vehicle: Klucel (hydroxypropylcellulose) (HPC)
[15] = dose: 120.0 mg/kg/injection, schedule: Q01DX005 (ip), vehicle: Klucel (hydroxypropylcellulose) (HPC)
[16] = dose: 200.0 mg/kg/injection, schedule: Q01DX005 (ip), vehicle: Klucel (hydroxypropylcellulose) (HPC)
[17] = dose: 25.0 mg/kg/injection, schedule: Q01DX009 (ip), vehicle: saline

COc1cc2cc(-c3cc(OC)c(OC)c(OC)c3)c3c(c2cc1OC)CNC3
T/C (dose: 3.12 mg/kg/injection, schedule: Q04DX003 (ip), vehicle: saline with Tween-80): 100 % of control | T/C (dose: 6.25 mg/kg/injection, schedule: Q04DX003 (ip), vehicle: saline with Tween-80): 105 % of control | T/C (dose: 12.5 mg/kg/injection, schedule: Q04DX003 (ip), vehicle: saline with Tween-80): 100 % of control | T/C (dose: 25.0 mg/kg/injection, schedule: Q04DX003 (ip), vehicle: saline with Tween-80): 98 % of control | T/C (dose: 50.0 mg/kg/injection, schedule: Q04DX003 (ip), vehicle: saline with Tween-80): 97 % of control

C=C(C)CC(C)/C(=N\N(C)C)c1ccccc1 (stereo unspecified)
T/C [1]: 98 % of control | T/C [2]: 100 % of control | T/C (dose: 200.0 mg/kg/injection, schedule: Q01DX009 (ip), vehicle: saline): 100 % of control

CCOC(=O)C1(CC)C(=O)C=C(c2ccccc2)CC1c1ccccc1 (stereo unspecified)
T/C [3]: 99 % of control | T/C [4]: 94 % of control | T/C (dose: 400.0 mg/kg/injection, schedule: Q01DX009 (ip), vehicle: Klucel (hydroxypropylcellulose) (HPC)): 94 % of control

O=C1CC2(CCc3ccccc32)C(=O)N1CN1CCN(c2ccccn2)CC1 (stereo unspecified)
T/C [5]: 106 % of control | T/C [6]: 109 % of control | T/C [7]: 92 % of control

Cn1c2c(c3ccccc31)-c1ncncc1CC2
T/C (dose: 50.0 mg/kg/injection, schedule: Q01DX005 (ip), vehicle: saline + Tween-80 + alcohol): 106 % of control | T/C (dose: 100.0 mg/kg/injection, schedule: Q01DX005 (ip), vehicle: saline + Tween-80 + alcohol): 92 % of control | T/C (dose: 200.0 mg/kg/injection, schedule: Q01DX005 (ip), vehicle: saline + Tween-80 + alcohol): 103 % of control

O=C1C[C@@H]2OCC=C3C[N+]4([O-])CC[C@]56c7ccccc7N1[C@H]5[C@H]2[C@H]3C[C@@H]64 (stereo partly specified)
T/C (dose: 12.5 mg/kg/injection, schedule: Q01DX005 (ip), vehicle: saline): 95 % of control | T/C (dose: 25.0 mg/kg/injection, schedule: Q01DX005 (ip), vehicle: saline): 88 % of control

O=C1CSC(=S)N1C1CC1
T/C [8]: 95 % of control | T/C [9]: 86 % of control | T/C [10]: 87 % of control

CCN1CC2(C)CCC(OC)C34C5CC6CCC(O)(C5C(=O)O6)C(C(O)C23)C14 (stereo unspecified)
T/C (dose: 25.0 mg/kg/injection, schedule: Q01DX009 (ip), vehicle: Klucel (hydroxypropylcellulose) (HPC)): 100 % of control | T/C [11]: 98 % of control | T/C [3]: 95 % of control

CCCCCCC(/C=C/c1ccccc1Cl)=N\O
T/C [11]: 92 % of control | T/C [3]: 100 % of control | T/C [4]: 105 % of control

CC(=O)OC1SC(C)(C)n2c1nc1ccccc1c2=O (stereo unspecified)
T/C (dose: 100.0 mg/kg/injection, schedule: Q01DX001 (ip), vehicle: saline with Tween-80): 100 % of control | T/C (dose: 200.0 mg/kg/injection, schedule: Q01DX001 (ip), vehicle: saline with Tween-80): 104 % of control | T/C (dose: 400.0 mg/kg/injection, schedule: Q01DX001 (ip), vehicle: saline with Tween-80): 98 % of control

CCOc1ccc2nc3cc(N)ccc3c(N)c2c1
T/C (dose: 44.0 mg/kg/injection, schedule: Q04DX003 (ip), vehicle: saline): 118 % of control | T/C (dose: 66.0 mg/kg/injection, schedule: Q04DX003 (ip), vehicle: saline): 118 % of control | T/C (dose: 100.0 mg/kg/injection, schedule: Q04DX003 (ip), vehicle: saline): 118 % of control | T/C (dose: 150.0 mg/kg/injection, schedule: Q04DX003 (ip), vehicle: saline): 118 % of control

NC(C(=O)O)C1C=CCC1 (stereo unspecified)
T/C [12]: 106 % of control | T/C [13]: 99 % of control

CN1CCC(=C2c3ccccc3C(=O)C(=O)c3sccc32)CC1
T/C [8]: 95 % of control | T/C [9]: 95 % of control | T/C [10]: 111 % of control

CCCN(CCC)/N=C/c1c2c(O)c3c(O)c(C)c4c(c3c1O)C(=O)C(C)(O/C=C/C(OC)C(C)C(OC(C)=O)C(C)C(O)C(C)C(O)C(C)/C=C/C=C(C)C(=O)N2)O4 (stereo unspecified)
T/C [14]: 110 % of control | T/C [15]: 122 % of control

CCCCCCNC(N)=NCCCC(N)C(=O)O (stereo unspecified)
T/C [12]: 103 % of control | T/C [13]: 102 % of control | T/C [16]: 106 % of control

O=C(Oc1ccccc1)c1ccc([N+](=O)[O-])cc1
T/C (dose: 25.0 mg/kg/injection, schedule: Q01DX005 (ip), vehicle: Klucel (hydroxypropylcellulose) (HPC)): 100 % of control | T/C [12]: 105 % of control | T/C [13]: 101 % of control | T/C [16]: 104 % of control

N#CN=[N+]([O-])c1ccc(Br)cc1
T/C (dose: 6.25 mg/kg/injection, schedule: Q04DX003 (ip), vehicle: Klucel (hydroxypropylcellulose) (HPC)): 108 % of control | T/C (dose: 12.5 mg/kg/injection, schedule: Q04DX003 (ip), vehicle: Klucel (hydroxypropylcellulose) (HPC)): 108 % of control | T/C (dose: 25.0 mg/kg/injection, schedule: Q04DX003 (ip), vehicle: Klucel (hydroxypropylcellulose) (HPC)): 90 % of control

NCCNCCNCCNCCN (tested in a mixture with another compound)
T/C [17]: 118 % of control | T/C [1]: 118 % of control | T/C [2]: 100 % of control

CCCC(NC(=O)OCc1ccccc1)C(=O)NC(CC(C)C)C(N)=O (stereo unspecified) (Cbz-[Nva]-Leu-NH2; configuration not given here)
T/C [12]: 112 % of control | T/C [13]: 100 % of control | T/C [16]: 100 % of control

O=C1N(Cc2ccccc2)C2CCS(=O)CCC2N1Cc1ccccc1 (stereo unspecified)
T/C [5]: 100 % of control | T/C [6]: 95 % of control | T/C [7]: 92 % of control

NCCCCCCCC(=O)NCCCCCCCC(=O)NCCCCCCCC(=O)NCCCCCCCC(=O)NN
T/C [5]: 100 % of control | T/C [6]: 100 % of control | T/C [7]: 91 % of control

N=C(N)c1ccc(/C=C/c2cc3cc(C(=N)N)ccc3[nH]2)cc1
T/C (dose: 6.25 mg/kg/injection, schedule: Q04DX003 (ip), vehicle: saline): 101 % of control and 108 % of control | T/C (dose: 12.5 mg/kg/injection, schedule: Q04DX003 (ip), vehicle: saline): 99 % of control and 102 % of control | T/C (dose: 25.0 mg/kg/injection, schedule: Q04DX003 (ip), vehicle: saline): 99 % of control and 101 % of control

COc1cc(C/C=C/c2ccccc2)c(OC)cc1O
T/C (dose: 2.5 mg/kg/injection, schedule: Q01DX009 (ip), vehicle: saline with Tween-80): 91 % of control | T/C (dose: 5.0 mg/kg/injection, schedule: Q01DX009 (ip), vehicle: saline with Tween-80): 102 % of control | T/C (dose: 10.0 mg/kg/injection, schedule: Q01DX009 (ip), vehicle: saline with Tween-80): 101 % of control

CC1CCCCN1CC(C)(C)C (stereo unspecified)
T/C [14]: 100 % of control | T/C [15]: 93 % of control

O=C(NC(Cc1ccc(I)cc1)C(=O)O)c1ccc(I)cc1 (stereo unspecified)
T/C [12]: 96 % of control | T/C [13]: 104 % of control | T/C [16]: 104 % of control

Cc1nc2c(cnn2C)c(=O)n1-c1ccccc1
T/C [12]: 96 % of control | T/C [13]: 98 % of control | T/C [16]: 100 % of control

Cc1oc(-c2cccc(F)c2)nc1C(N)=O
T/C [11]: 102 % of control | T/C [3]: 102 % of control | T/C [4]: 100 % of control

CC(=O)Nc1ccc(S(=O)(=O)NC(C)=O)cc1
T/C (dose: 12.5 mg/kg/injection, schedule: Q01DX009 (ip), vehicle: saline): 100 % of control | T/C [17]: 98 % of control | T/C [1]: 108 % of control | T/C [2]: 100 % of control

COC(=O)C1C(=O)CC2N(C)C1C(C)(C)C2(C)C (stereo unspecified)
T/C (dose: 120.0 mg/kg/injection, schedule: Q01DX005 (ip), vehicle: saline with Tween-80): 150 % of control
